According to ChEMBL document CHEMBL1148931, “New sesterterpenes from the sponge Smenospongia sp” (2004):
In brackets after ≈: the same amount, converted by molar mass.

What follows are molecules tested on K562 (assay: Cytotoxicity against human K562 cells). Settings: read-out: LC50 (the source's name).
Type: functional

SMILES | CC50
CC(=O)O[C@@H]1OC=C2[C@@H](OC(C)=O)C[C@@H]3[C@](C)(CC[C@H]4[C@@]3(C)CC[C@H]3C(C)(C)CCC[C@@]34CO)[C@H]21 | 0.02 µg/mL (≈ 0.0409 µM)
C/C(=C\CC/C(C)=C/C[C@H](O)c1ccoc1)CC/C=C(\C)CC(=O)CC(C)C | 3 µg/mL (≈ 7.76 µM)
CC(=O)O[C@@H](C/C=C(\C)CC/C=C(\C)CC/C=C(\C)CC(=O)CC(C)C)c1ccoc1 | 31.6 µg/mL (≈ 73.7 µM)
CC(=O)OC[C@]12CCCC(C)(C)[C@@H]1CC[C@@]1(C)[C@@H]3CC=C4C(=O)O[C@@H](OC(C)=O)[C@@H]4[C@@]3(C)CC[C@@H]12 | 11.2 µg/mL (≈ 23 µM)
CC(=O)OC[C@]12CCCC(C)(C)[C@@H]1CC[C@@]1(C)[C@@H]3CC=C4C(=O)O[C@@H](O)[C@@H]4[C@@]3(C)CC[C@@H]12 | 4.9 µg/mL (≈ 11 µM)
